Assay results as given in ChEMBL document CHEMBL1148872, “Bradykinin B1 antagonists: biphenyl SAR studies in the cyclopropanecarboxamide series” (Bioorg Med Chem Lett, 2007).

Test system: not listed separately
Experiment: Partition coefficient, log P of the compound
Conditions: octanol/water

Structure (SMILES) | logP
CCOC(=O)c1c(Cl)cccc1-c1cnc([C@@H](C)NC(=O)C2(NC(=O)C(F)(F)F)CC2)c(F)c1 | 3.6
COC(=O)c1c(Cl)cc(Cl)cc1-c1ccc([C@@H](C)NC(=O)C2(NC(=O)C(F)(F)F)CC2)c(F)c1 | > 3.8
COC(=O)c1c(Cl)cccc1-c1ccc([C@@H](C)NC(=O)C2(NC(=O)C(F)(F)F)CC2)c(F)c1 [MK0686] | > 3.6
COC(=O)c1c(Cl)cc(Cl)cc1-c1cnc([C@@H](C)NC(=O)C2(NC(=O)C(F)(F)F)CC2)c(F)c1 | 3.3

Target: T1, B1 bradykinin receptor (Homo sapiens, UniProt P46663)
T1 sequence (P46663 whole entry): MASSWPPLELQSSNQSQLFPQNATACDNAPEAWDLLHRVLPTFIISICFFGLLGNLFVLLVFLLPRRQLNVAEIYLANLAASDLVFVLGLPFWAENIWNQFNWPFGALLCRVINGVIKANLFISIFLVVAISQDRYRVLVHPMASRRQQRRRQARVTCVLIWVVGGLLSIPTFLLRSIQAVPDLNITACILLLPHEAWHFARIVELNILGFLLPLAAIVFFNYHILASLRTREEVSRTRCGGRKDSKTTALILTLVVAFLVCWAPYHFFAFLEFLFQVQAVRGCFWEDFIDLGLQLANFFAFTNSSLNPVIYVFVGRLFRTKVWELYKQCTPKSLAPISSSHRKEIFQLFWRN
Experiment: Binding affinity to human BK1 receptor
Conditions: not given

Structure (SMILES) | Ki [nM]
Cc1nc(-c2c(Cl)cc(Cl)cc2-c2ccc([C@@H](C)NC(=O)C3(NC(=O)C(F)(F)F)CC3)c(F)c2)no1 | 2.4
CCOC(=O)c1c(Cl)cccc1-c1cnc([C@@H](C)NC(=O)C2(NC(=O)C(F)(F)F)CC2)c(F)c1 | 1.2
CCOC(=O)c1c(Cl)cc(Cl)cc1-c1ccc([C@@H](C)NC(=O)C2(NC(=O)C(F)(F)F)CC2)c(F)c1 | 1.85
Cc1noc(-c2ccc(Cl)cc2-c2ccc([C@@H](C)NC(=O)C3(NC(=O)C(F)(F)F)CC3)c(F)c2)n1 | 7.6
Cc1nc(-c2ccc(Cl)cc2-c2ccc([C@@H](C)NC(=O)C3(NC(=O)C(F)(F)F)CC3)c(F)c2)no1 | 1.39
COC(=O)c1cc(Cl)ccc1-c1ccc([C@@H](C)NC(=O)C2(NC(=O)C(F)(F)F)CC2)c(F)c1 | 134
C[C@@H](NC(=O)C1(NC(=O)C(F)(F)F)CC1)c1ccc(-c2cc(Cl)cc(F)c2-c2nnn(C)n2)cc1F | 1.1
C[C@@H](NC(=O)C1(NC(=O)C(F)(F)F)CC1)c1ccc(-c2cc(Cl)cc(Cl)c2-c2nnn(C)n2)cc1F | 1.58
C[C@@H](NC(=O)C1(NC(=O)C(F)(F)F)CC1)c1ccc(-c2cc(Cl)ccc2-c2nnn(C)n2)cc1F | 1.45
COC(=O)c1c(Cl)cc(Cl)cc1-c1ccc([C@@H](C)NC(=O)C2(NC(=O)C(F)(F)F)CC2)c(F)c1 | 0.46
COC(=O)c1c(F)cc(Cl)cc1-c1ccc([C@@H](C)NC(=O)C2(NC(=O)C(F)(F)F)CC2)c(F)c1 | 0.68
COC(=O)c1ccc(Cl)cc1-c1ccc([C@@H](C)NC(=O)C2(NC(=O)C(F)(F)F)CC2)c(F)c1 | 2.05
COC(=O)c1c(Cl)cccc1-c1cnc([C@@H](C)NC(=O)C2(NC(=O)C(F)(F)F)CC2)c(F)c1 | 0.77
C[C@@H](NC(=O)C1(NC(=O)C(F)(F)F)CC1)c1ncc(-c2cc(Cl)cc(Cl)c2-c2nnn(C)n2)cc1F | 3.8
CCOC(=O)c1c(Cl)cc(Cl)cc1-c1cnc([C@@H](C)NC(=O)C2(NC(=O)C(F)(F)F)CC2)c(F)c1 | 1.8
COC(=O)c1c(Cl)cc(Cl)cc1-c1cnc([C@@H](C)NC(=O)C2(NC(=O)C(F)(F)F)CC2)c(F)c1 | 2.6

Test system: not listed separately
Experiment: Half life in Sprague-Dawley rat at 10 mg/kg, po or 2 mg/kg, iv
Conditions: in vivo

Structure (SMILES) | half-life [h]
Cc1nc(-c2c(Cl)cc(Cl)cc2-c2ccc([C@@H](C)NC(=O)C3(NC(=O)C(F)(F)F)CC3)c(F)c2)no1 | 5.6
CCOC(=O)c1c(Cl)cccc1-c1cnc([C@@H](C)NC(=O)C2(NC(=O)C(F)(F)F)CC2)c(F)c1 | 0.8
C[C@@H](NC(=O)C1(NC(=O)C(F)(F)F)CC1)c1ccc(-c2cc(Cl)cc(F)c2-c2nnn(C)n2)cc1F | 3.5
COC(=O)c1c(Cl)cc(Cl)cc1-c1ccc([C@@H](C)NC(=O)C2(NC(=O)C(F)(F)F)CC2)c(F)c1 | 4.6
COC(=O)c1c(F)cc(Cl)cc1-c1ccc([C@@H](C)NC(=O)C2(NC(=O)C(F)(F)F)CC2)c(F)c1 | 0.8
COC(=O)c1c(Cl)cc(Cl)cc1-c1cnc([C@@H](C)NC(=O)C2(NC(=O)C(F)(F)F)CC2)c(F)c1 | 1.3

Test system: not listed separately
Experiment: Half life in mongrel dog at 3 mg/kg, po or 1 mg/kg, iv
Conditions: in vivo

Structure (SMILES) | half-life [h]
CCOC(=O)c1c(Cl)cccc1-c1cnc([C@@H](C)NC(=O)C2(NC(=O)C(F)(F)F)CC2)c(F)c1 | 2.3
COC(=O)c1c(Cl)cc(Cl)cc1-c1cnc([C@@H](C)NC(=O)C2(NC(=O)C(F)(F)F)CC2)c(F)c1 | 6.6

Test system: not listed separately
Experiment: in vivo
Conditions: mongrel, dog, po, 3 mg/kg

Structure (SMILES) | bioavailability [%]
CCOC(=O)c1c(Cl)cccc1-c1cnc([C@@H](C)NC(=O)C2(NC(=O)C(F)(F)F)CC2)c(F)c1 | 20
COC(=O)c1c(Cl)cc(Cl)cc1-c1ccc([C@@H](C)NC(=O)C2(NC(=O)C(F)(F)F)CC2)c(F)c1 | 19
COC(=O)c1c(Cl)cc(Cl)cc1-c1cnc([C@@H](C)NC(=O)C2(NC(=O)C(F)(F)F)CC2)c(F)c1 | 66

Test system: not listed separately
Experiment: Ratio of drug level in brain to plasma in african green monkey at 2 mg/kg, iv after 30 mins
Conditions: chlorocebus aethiops, brain

Structure (SMILES) | Kp at 0.5 h
COC(=O)c1c(Cl)cc(Cl)cc1-c1ccc([C@@H](C)NC(=O)C2(NC(=O)C(F)(F)F)CC2)c(F)c1 | 1.1

Same assay, conditions: chlorocebus aethiops, brain and plasma

Structure (SMILES) | Kp at 0.5 h
CCOC(=O)c1c(Cl)cccc1-c1cnc([C@@H](C)NC(=O)C2(NC(=O)C(F)(F)F)CC2)c(F)c1 | 0.7
COC(=O)c1c(Cl)cccc1-c1ccc([C@@H](C)NC(=O)C2(NC(=O)C(F)(F)F)CC2)c(F)c1 [MK0686] | 0.4
COC(=O)c1c(Cl)cc(Cl)cc1-c1cnc([C@@H](C)NC(=O)C2(NC(=O)C(F)(F)F)CC2)c(F)c1 | 0.8

Test system: not listed separately
Experiment: Clearance in Sprague-Dawley rat at 10 mg/kg, po or 2 mg/kg, iv
Conditions: in vivo

Structure (SMILES) | clearance [mL/min/kg]
Cc1nc(-c2c(Cl)cc(Cl)cc2-c2ccc([C@@H](C)NC(=O)C3(NC(=O)C(F)(F)F)CC3)c(F)c2)no1 | 0.8
CCOC(=O)c1c(Cl)cccc1-c1cnc([C@@H](C)NC(=O)C2(NC(=O)C(F)(F)F)CC2)c(F)c1 | 6.8
C[C@@H](NC(=O)C1(NC(=O)C(F)(F)F)CC1)c1ccc(-c2cc(Cl)cc(F)c2-c2nnn(C)n2)cc1F | 2.3
COC(=O)c1c(F)cc(Cl)cc1-c1ccc([C@@H](C)NC(=O)C2(NC(=O)C(F)(F)F)CC2)c(F)c1 | 13
COC(=O)c1c(Cl)cc(Cl)cc1-c1cnc([C@@H](C)NC(=O)C2(NC(=O)C(F)(F)F)CC2)c(F)c1 | 16.6

Target: T2, B1 bradykinin receptor (Homo sapiens) (UniProt P46663)
T2 sequence (whole entry): T1 sequence (P46663 whole entry)
Experiment: Receptor occupancy efficiency at human BK1 receptor in ex vivo transgenic receptor mouse occupancy model
Format: functional
Conditions: not given

Structure (SMILES) | Occ90 [nM]
CCOC(=O)c1c(Cl)cccc1-c1cnc([C@@H](C)NC(=O)C2(NC(=O)C(F)(F)F)CC2)c(F)c1 | 225
C[C@@H](NC(=O)C1(NC(=O)C(F)(F)F)CC1)c1ccc(-c2cc(Cl)cc(Cl)c2-c2nnn(C)n2)cc1F | 540
COC(=O)c1c(Cl)cc(Cl)cc1-c1ccc([C@@H](C)NC(=O)C2(NC(=O)C(F)(F)F)CC2)c(F)c1 | 450
COC(=O)c1c(Cl)cccc1-c1ccc([C@@H](C)NC(=O)C2(NC(=O)C(F)(F)F)CC2)c(F)c1 [MK0686] | 520
COC(=O)c1c(Cl)cccc1-c1cnc([C@@H](C)NC(=O)C2(NC(=O)C(F)(F)F)CC2)c(F)c1 | 350
COC(=O)c1c(Cl)cc(Cl)cc1-c1cnc([C@@H](C)NC(=O)C2(NC(=O)C(F)(F)F)CC2)c(F)c1 | 210

Test system: not listed separately
Experiment: Half life in rhesus monkey at 3 mg/kg, po or 1 mg/kg, iv
Conditions: in vivo

Structure (SMILES) | half-life [h]
CCOC(=O)c1c(Cl)cccc1-c1cnc([C@@H](C)NC(=O)C2(NC(=O)C(F)(F)F)CC2)c(F)c1 | 1.1
COC(=O)c1c(Cl)cc(Cl)cc1-c1ccc([C@@H](C)NC(=O)C2(NC(=O)C(F)(F)F)CC2)c(F)c1 | 3.9
COC(=O)c1c(Cl)cc(Cl)cc1-c1cnc([C@@H](C)NC(=O)C2(NC(=O)C(F)(F)F)CC2)c(F)c1 | 2.5

Test system: not listed separately
Experiment: in vivo
Conditions: Sprague-Dawley, rat, po, 10 mg/kg
Description: Oral bioavailability in Sprague-Dawley rat at 10 mg/kg, po

Structure (SMILES) | bioavailability [%]
Cc1nc(-c2c(Cl)cc(Cl)cc2-c2ccc([C@@H](C)NC(=O)C3(NC(=O)C(F)(F)F)CC3)c(F)c2)no1 | 39
CCOC(=O)c1c(Cl)cccc1-c1cnc([C@@H](C)NC(=O)C2(NC(=O)C(F)(F)F)CC2)c(F)c1 | 52
C[C@@H](NC(=O)C1(NC(=O)C(F)(F)F)CC1)c1ccc(-c2cc(Cl)cc(F)c2-c2nnn(C)n2)cc1F | 64
COC(=O)c1c(Cl)cc(Cl)cc1-c1ccc([C@@H](C)NC(=O)C2(NC(=O)C(F)(F)F)CC2)c(F)c1 | 38
COC(=O)c1c(F)cc(Cl)cc1-c1ccc([C@@H](C)NC(=O)C2(NC(=O)C(F)(F)F)CC2)c(F)c1 | 21
COC(=O)c1c(Cl)cc(Cl)cc1-c1cnc([C@@H](C)NC(=O)C2(NC(=O)C(F)(F)F)CC2)c(F)c1 | 19

Test system: not listed separately
Experiment: Apparent permeability of the compound
Conditions: not told

Structure (SMILES) | Papp [×10⁻⁶ cm/s]
Cc1nc(-c2c(Cl)cc(Cl)cc2-c2ccc([C@@H](C)NC(=O)C3(NC(=O)C(F)(F)F)CC3)c(F)c2)no1 | 23
CCOC(=O)c1c(Cl)cccc1-c1cnc([C@@H](C)NC(=O)C2(NC(=O)C(F)(F)F)CC2)c(F)c1 | 28
C[C@@H](NC(=O)C1(NC(=O)C(F)(F)F)CC1)c1ccc(-c2cc(Cl)cc(F)c2-c2nnn(C)n2)cc1F | 23
COC(=O)c1c(Cl)cc(Cl)cc1-c1ccc([C@@H](C)NC(=O)C2(NC(=O)C(F)(F)F)CC2)c(F)c1 | 18
COC(=O)c1c(F)cc(Cl)cc1-c1ccc([C@@H](C)NC(=O)C2(NC(=O)C(F)(F)F)CC2)c(F)c1 | 27
COC(=O)c1c(Cl)cc(Cl)cc1-c1cnc([C@@H](C)NC(=O)C2(NC(=O)C(F)(F)F)CC2)c(F)c1 | 29

Test system: not listed separately
Experiment: in vivo
Conditions: rhesus monkey, po, 3 mg/kg

Structure (SMILES) | bioavailability [%]
CCOC(=O)c1c(Cl)cccc1-c1cnc([C@@H](C)NC(=O)C2(NC(=O)C(F)(F)F)CC2)c(F)c1 | 12
COC(=O)c1c(Cl)cc(Cl)cc1-c1ccc([C@@H](C)NC(=O)C2(NC(=O)C(F)(F)F)CC2)c(F)c1 | 20
COC(=O)c1c(Cl)cc(Cl)cc1-c1cnc([C@@H](C)NC(=O)C2(NC(=O)C(F)(F)F)CC2)c(F)c1 | 12
